Source: ChEMBL document CHEMBL3217594, “Structureactivity relationships of methyl-lysine reader antagonists” (Medchemcomm, 2012)
Active and inactive are the calls of the source. The calls are words filed in the database; no cut-off is given here.

How the values were obtained:
[1] = molecular target: T1, Scm-like with four MBT domains protein 1 (Homo sapiens) (UniProt Q9UHJ3); assay: Antagonist activity at SFMBT1 (unknown origin) assessed as inhibition of SFMBT1/biotinylated H3K9Me1 peptide interaction at 30 uM after 30 mins by AlphaScreen assay
T1 sequence (whole entry): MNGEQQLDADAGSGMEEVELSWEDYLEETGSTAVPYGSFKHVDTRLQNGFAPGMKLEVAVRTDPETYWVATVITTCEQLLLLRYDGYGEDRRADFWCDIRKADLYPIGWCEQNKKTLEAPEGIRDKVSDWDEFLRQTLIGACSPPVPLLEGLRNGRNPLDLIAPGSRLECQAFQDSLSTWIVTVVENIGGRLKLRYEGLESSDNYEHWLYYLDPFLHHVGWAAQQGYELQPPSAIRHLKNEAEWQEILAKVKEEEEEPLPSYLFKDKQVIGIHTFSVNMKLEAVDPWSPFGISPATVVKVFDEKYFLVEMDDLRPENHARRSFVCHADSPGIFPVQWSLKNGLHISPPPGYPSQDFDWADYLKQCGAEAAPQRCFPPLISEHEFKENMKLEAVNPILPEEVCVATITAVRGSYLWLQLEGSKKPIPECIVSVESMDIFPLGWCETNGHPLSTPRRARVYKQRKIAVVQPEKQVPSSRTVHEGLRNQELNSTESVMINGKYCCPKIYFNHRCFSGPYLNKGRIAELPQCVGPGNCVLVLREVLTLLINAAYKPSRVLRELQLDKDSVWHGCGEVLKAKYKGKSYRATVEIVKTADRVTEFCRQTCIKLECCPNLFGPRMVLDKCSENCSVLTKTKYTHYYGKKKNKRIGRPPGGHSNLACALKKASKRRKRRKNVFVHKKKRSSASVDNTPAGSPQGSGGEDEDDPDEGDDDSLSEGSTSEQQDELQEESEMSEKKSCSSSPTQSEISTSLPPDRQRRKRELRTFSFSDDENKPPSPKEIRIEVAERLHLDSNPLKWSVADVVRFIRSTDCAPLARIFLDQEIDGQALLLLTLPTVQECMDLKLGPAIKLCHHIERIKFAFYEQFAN

[2] = molecular target: T2, Lethal(3)malignant brain tumor-like protein 3 (Homo sapiens, UniProt Q96JM7); assay: Antagonist activity at His-tagged L3MBTL3 (unknown origin) assessed as inhibition of L3MBTL3/biotinylated H4K20Me2 peptide interaction after 30 mins by AlphaScreen assay
T2 sequence (Q96JM7 whole entry): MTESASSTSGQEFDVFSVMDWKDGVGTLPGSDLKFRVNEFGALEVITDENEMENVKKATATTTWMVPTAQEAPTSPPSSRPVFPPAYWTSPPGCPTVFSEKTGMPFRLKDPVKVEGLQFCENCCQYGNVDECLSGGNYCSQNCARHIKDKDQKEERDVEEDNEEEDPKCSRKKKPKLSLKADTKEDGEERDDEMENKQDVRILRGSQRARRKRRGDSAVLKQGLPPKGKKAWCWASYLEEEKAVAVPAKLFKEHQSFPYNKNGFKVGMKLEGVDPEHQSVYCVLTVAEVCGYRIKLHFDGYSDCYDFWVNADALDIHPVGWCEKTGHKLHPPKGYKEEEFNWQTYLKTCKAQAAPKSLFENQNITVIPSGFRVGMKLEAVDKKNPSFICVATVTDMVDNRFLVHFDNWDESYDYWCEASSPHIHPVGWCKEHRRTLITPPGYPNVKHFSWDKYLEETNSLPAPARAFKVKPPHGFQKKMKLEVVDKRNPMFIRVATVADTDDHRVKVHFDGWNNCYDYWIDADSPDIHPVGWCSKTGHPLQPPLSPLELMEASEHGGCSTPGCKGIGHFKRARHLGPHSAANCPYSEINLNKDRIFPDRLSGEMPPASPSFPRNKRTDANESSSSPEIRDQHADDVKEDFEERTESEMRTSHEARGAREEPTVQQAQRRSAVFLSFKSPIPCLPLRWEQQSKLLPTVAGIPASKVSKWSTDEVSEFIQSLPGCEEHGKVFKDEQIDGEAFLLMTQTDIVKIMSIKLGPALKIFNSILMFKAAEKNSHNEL

[3] = molecular target: T3, Chromobox protein homolog 7 (Homo sapiens, UniProt O95931); assay: Antagonist activity at Flag-tagged CBX7 (unknown origin) assessed as inhibition of CBX7/biotinylated H3K9Me3 peptide interaction after 30 mins by AlphaScreen assay
T3 sequence (O95931 whole entry): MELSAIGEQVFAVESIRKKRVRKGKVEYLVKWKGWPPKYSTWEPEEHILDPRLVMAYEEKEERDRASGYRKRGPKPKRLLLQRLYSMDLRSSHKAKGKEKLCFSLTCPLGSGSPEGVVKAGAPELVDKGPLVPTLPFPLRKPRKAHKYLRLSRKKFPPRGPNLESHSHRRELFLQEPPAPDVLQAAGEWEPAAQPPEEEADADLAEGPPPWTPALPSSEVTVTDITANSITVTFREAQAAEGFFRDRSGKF

[4] = molecular target: T4, Lethal(3)malignant brain tumor-like protein 1 (Homo sapiens) (UniProt Q9Y468); settings: Plus RIL, 30 uM
T4 sequence (whole entry): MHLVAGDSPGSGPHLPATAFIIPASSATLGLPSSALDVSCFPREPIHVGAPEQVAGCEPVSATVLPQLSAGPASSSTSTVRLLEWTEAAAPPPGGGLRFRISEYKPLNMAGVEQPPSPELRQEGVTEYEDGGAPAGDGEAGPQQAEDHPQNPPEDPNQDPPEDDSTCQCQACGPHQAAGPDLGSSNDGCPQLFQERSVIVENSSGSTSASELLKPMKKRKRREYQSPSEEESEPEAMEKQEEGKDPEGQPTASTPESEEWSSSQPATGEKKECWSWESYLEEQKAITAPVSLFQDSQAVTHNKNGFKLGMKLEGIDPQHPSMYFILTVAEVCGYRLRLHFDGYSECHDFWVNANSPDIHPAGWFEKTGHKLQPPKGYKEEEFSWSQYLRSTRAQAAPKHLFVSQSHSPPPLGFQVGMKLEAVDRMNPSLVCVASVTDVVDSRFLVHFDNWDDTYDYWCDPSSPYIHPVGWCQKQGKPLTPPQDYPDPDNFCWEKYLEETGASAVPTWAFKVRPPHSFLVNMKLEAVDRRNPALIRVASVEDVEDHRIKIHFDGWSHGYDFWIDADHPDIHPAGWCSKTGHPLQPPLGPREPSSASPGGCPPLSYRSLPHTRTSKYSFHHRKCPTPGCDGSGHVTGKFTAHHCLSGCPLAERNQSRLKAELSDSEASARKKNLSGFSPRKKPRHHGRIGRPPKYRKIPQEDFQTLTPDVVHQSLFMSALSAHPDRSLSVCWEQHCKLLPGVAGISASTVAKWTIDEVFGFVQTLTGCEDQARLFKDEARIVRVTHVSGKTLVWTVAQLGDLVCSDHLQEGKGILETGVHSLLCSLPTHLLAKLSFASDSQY

Row | inhibition [1] | IC50 [3] | SMILES | IC50 [2] | inhibition [4]
1 | 12% | > 30 µM | O=C(c1cccc(Br)c1)N1CCC(N2CCCC2)CC1 | 3.2 µM | 
2 | inactive | > 30 µM | CN(C)C1CCN(C(=O)c2cccc(Br)c2)CC1 | > 30 µM | 5%
3 | inactive | > 30 µM | O=C(c1cccc(Br)c1)N1CCC(N2CCCCC2)CC1 | > 30 µM | 5%
4 | inactive | > 30 µM | O=C(c1cccc(Br)c1)N1CCC(N2CCCC2)C1 (stereo not drawn) | > 30 µM | 18%
5 | inactive | > 30 µM | CC(c1cccc(Br)c1)N1CCC(N2CCCC2)CC1 (racemic) | 16 µM | 25%
6 | inactive | > 30 µM | CNC1CCN(C(=O)c2cccc(Br)c2)CC1 | > 30 µM | inactive
7 | inactive | > 30 µM | Brc1cccc(CN2CCC(N3CCCC3)CC2)c1 | 13.3 µM | 20%
8 | inactive | > 30 µM | O=C(c1cccc(Br)c1)N1CCC(C2CCCN2)CC1 (stereo not drawn) |  | 6%
9 | inactive | > 30 µM | CN1CCCC1C1CCN(C(=O)c2cccc(Br)c2)CC1 (stereo not drawn) | 21 µM | 3%
10 | inactive | > 30 µM | O=C(O)c1cccc(C(=O)N2CCC(N3CCCC3)CC2)c1 | 6.9 µM | 31%
11 | inactive | > 30 µM | C[N+]1(C2CCN(C(=O)c3cccc(Br)c3)CC2)CCCC1 | > 30 µM | inactive
12 | inactive | > 30 µM | O=C(c1cccc(Br)c1)N1CCC(N2CCC2)CC1 | 23.8 µM | 32%
13 | inactive | > 30 µM | CC1CCCN1C1CCN(C(=O)c2cccc(Br)c2)CC1 (stereo not drawn) | > 30 µM | 6%
14 | inactive | > 30 µM | O=C(c1cccc(Br)c1)N1CCN(C2CCCC2)CC1 | > 30 µM | inactive
15 | inactive | > 30 µM | O=S(=O)(c1cccc(Br)c1)N1CCC(N2CCCC2)CC1 | 3.7 µM | 48%
